Source: patent US9439432B2, “Phenylisoxazoline-based compound having herbicidal activity and use thereof” (MOGHU RESEARCH CENTER LTD, priority 2011, dated 2016)

system: Rice; assay: Pre-emergence treatment, phytotoxicity to rice; assay type: in vivo; settings: 500 g/ha, 4 weeks after spraying, scale 0 to 10 (0: no effects, 10: complete death)
Description: (§1) A rectangular plastic pot having a surface area of 300 cm^2 was filled with sandy loam soil and mixed bed soil which were mixed at a ratio of 1:1, and then, barnyardrass (Echinochloa crusgalli), large crabgrass (Digitaria sanguinalis), blackgrass (Alopecurus myosuroides), and annual bluegrass (Poa annua), which are grass weeds, were seeded thereto. In a pot that was prepared as described above, seeds of corn, soybean, cotton, wheat, and rice were seeded. The pots were irrigated, and one day after, chemicals were sprayed thereto. The spraying was performed by using a track sprayer (R&D Sprayer, USA) equipped with a Teejet 8002 (Spraying Systems Co., USA) nozzle, and a spraying amount was adjusted at 300 L/ha. A spraying solution was prepared by dissolving test materials or references in acetone and adding the same amount of 0.2%(v/v) tween 20 aqueous solution thereto. Application rates were 500, 250, 125, and 62.5 g/ha. The pots were placed in a greenhouse in which during day, the temperature was maintained at a temperature of 25 to 30° C., and during night, the temperature was maintained at a temperature of 15 to 25° C., and the pots were periodically irrigated. Four weeks after the spraying the test materials or References, effects and phytotoxicity of the respective weeds and crops were evaluated in a scale of 0 to 10 (0: no effects, 10: complete death), and results thereof are shown in Table 4 below.

SMILES	Phytotoxicity, Rice
CC1(COCc2c(F)cccc2F)CC(c2ccccc2Br)=NO1 (stereo not drawn) [Compound 3, 3-(2-bromophenyl)-5-((2,6-difluorobenzyloxy)methyl)-5-methyl-4,5-dihydroisoxazole]	0

system: Wheat; assay: Pre-emergence treatment, phytotoxicity to wheat; assay type: in vivo; settings: 500 g/ha, 4 weeks after spraying, scale 0 to 10 (0: no effects, 10: complete death)
Description: as §1

SMILES	Phytotoxicity, Wheat
CC1(COCc2c(F)cccc2F)CC(c2ccccc2Br)=NO1 (stereo not drawn) [Compound 3, 3-(2-bromophenyl)-5-((2,6-difluorobenzyloxy)methyl)-5-methyl-4,5-dihydroisoxazole]	0

system: Corn; assay: Pre-emergence treatment, phytotoxicity to corn; assay type: in vivo; settings: 500 g/ha, 4 weeks after spraying, scale 0 to 10 (0: no effects, 10: complete death)
Description: as §1

SMILES	Phytotoxicity, Corn
CC1(COCc2c(F)cccc2F)CC(c2ccccc2Br)=NO1 (stereo not drawn) [Compound 3, 3-(2-bromophenyl)-5-((2,6-difluorobenzyloxy)methyl)-5-methyl-4,5-dihydroisoxazole]	2

system: Digitaria sanguinalis; assay: Pre-emergence treatment, herbicidal efficacy on large crabgrass; assay type: in vivo; settings: 62.5 g/ha, 4 weeks after spraying, scale 0 to 10
Description: as §1

SMILES	Herbicidal efficacy, Digitaria sanguinalis
CC1(COCc2c(F)cccc2F)CC(c2ccccc2Br)=NO1 (stereo not drawn) [Compound 3, 3-(2-bromophenyl)-5-((2,6-difluorobenzyloxy)methyl)-5-methyl-4,5-dihydroisoxazole]	10

same assay, conditions: 125 g/ha, 4 weeks after spraying, scale 0 to 10

SMILES	Herbicidal efficacy, Digitaria sanguinalis
CC1(COCc2c(F)cccc2F)CC(c2ccccc2Br)=NO1 (stereo not drawn) [Compound 3, 3-(2-bromophenyl)-5-((2,6-difluorobenzyloxy)methyl)-5-methyl-4,5-dihydroisoxazole]	10

same assay, conditions: 250 g/ha, 4 weeks after spraying, scale 0 to 10

SMILES	Herbicidal efficacy, Digitaria sanguinalis
CC1(COCc2c(F)cccc2F)CC(c2ccccc2Br)=NO1 (stereo not drawn) [Compound 3, 3-(2-bromophenyl)-5-((2,6-difluorobenzyloxy)methyl)-5-methyl-4,5-dihydroisoxazole]	10

same assay, conditions: 500 g/ha, 4 weeks after spraying, scale 0 to 10

SMILES	Herbicidal efficacy, Digitaria sanguinalis
CC1(COCc2c(F)cccc2F)CC(c2ccccc2Br)=NO1 (stereo not drawn) [Compound 3, 3-(2-bromophenyl)-5-((2,6-difluorobenzyloxy)methyl)-5-methyl-4,5-dihydroisoxazole]	10

system: Soybean; assay: Pre-emergence treatment, phytotoxicity to soybean; assay type: in vivo; settings: 500 g/ha, 4 weeks after spraying, scale 0 to 10 (0: no effects, 10: complete death)
Description: as §1

SMILES	Phytotoxicity, Soybean
CC1(COCc2c(F)cccc2F)CC(c2ccccc2Br)=NO1 (stereo not drawn) [Compound 3, 3-(2-bromophenyl)-5-((2,6-difluorobenzyloxy)methyl)-5-methyl-4,5-dihydroisoxazole]	0

system: Cotton; assay: Pre-emergence treatment, phytotoxicity to cotton; assay type: in vivo; settings: 500 g/ha, 4 weeks after spraying, scale 0 to 10 (0: no effects, 10: complete death)
Description: as §1

SMILES	Phytotoxicity, Cotton
CC1(COCc2c(F)cccc2F)CC(c2ccccc2Br)=NO1 (stereo not drawn) [Compound 3, 3-(2-bromophenyl)-5-((2,6-difluorobenzyloxy)methyl)-5-methyl-4,5-dihydroisoxazole]	0

system: Poa annua; assay: Pre-emergence treatment, herbicidal efficacy on annual bluegrass; assay type: in vivo; settings: 62.5 g/ha, 4 weeks after spraying, scale 0 to 10
Description: as §1

SMILES	Herbicidal efficacy, Poa annua
CC1(COCc2c(F)cccc2F)CC(c2ccccc2Br)=NO1 (stereo not drawn) [Compound 3, 3-(2-bromophenyl)-5-((2,6-difluorobenzyloxy)methyl)-5-methyl-4,5-dihydroisoxazole]	4

same assay, conditions: 125 g/ha, 4 weeks after spraying, scale 0 to 10

SMILES	Herbicidal efficacy, Poa annua
CC1(COCc2c(F)cccc2F)CC(c2ccccc2Br)=NO1 (stereo not drawn) [Compound 3, 3-(2-bromophenyl)-5-((2,6-difluorobenzyloxy)methyl)-5-methyl-4,5-dihydroisoxazole]	7

same assay, conditions: 250 g/ha, 4 weeks after spraying, scale 0 to 10

SMILES	Herbicidal efficacy, Poa annua
CC1(COCc2c(F)cccc2F)CC(c2ccccc2Br)=NO1 (stereo not drawn) [Compound 3, 3-(2-bromophenyl)-5-((2,6-difluorobenzyloxy)methyl)-5-methyl-4,5-dihydroisoxazole]	8

same assay, conditions: 500 g/ha, 4 weeks after spraying, scale 0 to 10

SMILES	Herbicidal efficacy, Poa annua
CC1(COCc2c(F)cccc2F)CC(c2ccccc2Br)=NO1 (stereo not drawn) [Compound 3, 3-(2-bromophenyl)-5-((2,6-difluorobenzyloxy)methyl)-5-methyl-4,5-dihydroisoxazole]	10

system: Echinochloa crusgalli; assay: Pre-emergence treatment, herbicidal efficacy on barnyardgrass; assay type: in vivo; settings: 62.5 g/ha, 4 weeks after spraying, scale 0 to 10
Description: as §1

SMILES	Herbicidal efficacy, Echinochloa crusgalli
CC1(COCc2c(F)cccc2F)CC(c2ccccc2Br)=NO1 (stereo not drawn) [Compound 3, 3-(2-bromophenyl)-5-((2,6-difluorobenzyloxy)methyl)-5-methyl-4,5-dihydroisoxazole]	10

same assay, conditions: 125 g/ha, 4 weeks after spraying, scale 0 to 10

SMILES	Herbicidal efficacy, Echinochloa crusgalli
CC1(COCc2c(F)cccc2F)CC(c2ccccc2Br)=NO1 (stereo not drawn) [Compound 3, 3-(2-bromophenyl)-5-((2,6-difluorobenzyloxy)methyl)-5-methyl-4,5-dihydroisoxazole]	10

same assay, conditions: 250 g/ha, 4 weeks after spraying, scale 0 to 10

SMILES	Herbicidal efficacy, Echinochloa crusgalli
CC1(COCc2c(F)cccc2F)CC(c2ccccc2Br)=NO1 (stereo not drawn) [Compound 3, 3-(2-bromophenyl)-5-((2,6-difluorobenzyloxy)methyl)-5-methyl-4,5-dihydroisoxazole]	10

same assay, conditions: 500 g/ha, 4 weeks after spraying, scale 0 to 10 (0: no effects, 10: complete death)

SMILES	Herbicidal efficacy, Echinochloa crusgalli
CC1(COCc2c(F)cccc2F)CC(c2ccccc2Br)=NO1 (stereo not drawn) [Compound 3, 3-(2-bromophenyl)-5-((2,6-difluorobenzyloxy)methyl)-5-methyl-4,5-dihydroisoxazole]	10

system: Alopecurus myosuroides; assay: Pre-emergence treatment, herbicidal efficacy on blackgrass; assay type: in vivo; settings: 62.5 g/ha, 4 weeks after spraying, scale 0 to 10
Description: as §1

SMILES	Herbicidal efficacy, Alopecurus myosuroides
CC1(COCc2c(F)cccc2F)CC(c2ccccc2Br)=NO1 (stereo not drawn) [Compound 3, 3-(2-bromophenyl)-5-((2,6-difluorobenzyloxy)methyl)-5-methyl-4,5-dihydroisoxazole]	4

same assay, conditions: 125 g/ha, 4 weeks after spraying, scale 0 to 10

SMILES	Herbicidal efficacy, Alopecurus myosuroides
CC1(COCc2c(F)cccc2F)CC(c2ccccc2Br)=NO1 (stereo not drawn) [Compound 3, 3-(2-bromophenyl)-5-((2,6-difluorobenzyloxy)methyl)-5-methyl-4,5-dihydroisoxazole]	4

same assay, conditions: 250 g/ha, 4 weeks after spraying, scale 0 to 10

SMILES	Herbicidal efficacy, Alopecurus myosuroides
CC1(COCc2c(F)cccc2F)CC(c2ccccc2Br)=NO1 (stereo not drawn) [Compound 3, 3-(2-bromophenyl)-5-((2,6-difluorobenzyloxy)methyl)-5-methyl-4,5-dihydroisoxazole]	5

same assay, conditions: 500 g/ha, 4 weeks after spraying, scale 0 to 10

SMILES	Herbicidal efficacy, Alopecurus myosuroides
CC1(COCc2c(F)cccc2F)CC(c2ccccc2Br)=NO1 (stereo not drawn) [Compound 3, 3-(2-bromophenyl)-5-((2,6-difluorobenzyloxy)methyl)-5-methyl-4,5-dihydroisoxazole]	7
